Reference: patent US9481630B2, “Ingenane-type diterpene compound, and pharmaceutical composition for treating or preventing viral infectious diseases containing same” (priority 2011, dated 2016)

System: NK92 cells
Assay: IFN-γ production in NK92 cells, released IFN-γ in culture supernatant by ELISA
Type: cell-based, human
Details: for effect on IFN-γ production: 10 nM, similar to the same dose of PMA (positive control)
Method: NK92 cells (human NK lymphoma) were obtained from American Type Culture Collection. NK92 cells were kept in α-MEM (Invitrogen, US) containing 20% fetal bovine serum (Invitrogen), 2 mM […], […] (Invitrogen), and were replenished with 100 U/mL IL-2 (Peprotech, US). NK92 cell culture was carried out in a culture medium at 37° C. under 5% CO2 humidity atmosphere. The amount of human IFN-γ was analyzed according to the protocol of a supplier using an assay kit (Endogen, Woburn, US).
In order to detect IFN-γ, 2×10^5 NK92 cell/mL was inoculated in a 48-well culture plate, and was cultured for 12 hours with each isolated compounds in an α-MEM medium containing 20% FBS and IL-2. The IFN-γ released in the culture supernatant was analyzed using an ELISA method. The absorbance was measured on a microplate reader and the treatment and the analysis for all the compounds were repeated twice. The cell toxicity of the compound-treated NK92 cells was evaluated through an MTT analysis.

Compound | activity for inducing IFN-γ production (5 μM) | effect on IFN-γ production | further results
gansuiphorin A [Compound 5] | had activity for inducing IFN-γ production |  | 
CCCCCCCCCCCC(=O)O[C@@]12C[C@@H](C)[C@]34C=C(C)[C@H](OC(=O)C(C)C(C)C)[C@@]3(O)[C@H](O)C(CO)=C[C@H](C4=O)[C@@H]1C2(C)C (stereo partly drawn) [Compound 6, 3-O-(2,3-dimethylbutanoyl)-13-O-dodecanoylingenol] |  | significant effects on the IFN-γ production | 
CCCCCCCCCC(=O)OCC1=C[C@@H]2C(=O)[C@]3(C=C(C)[C@H](O)[C@@]3(O)[C@@H]1O)[C@H](C)C[C@@H]1[C@H]2C1(C)C [Compound 3, 20-O-decanoylingenol] |  |  | activity for inducing IFN-γ production (100 nM): had activity for inducing IFN-γ production
CCCCC/C=C\C=C\C(=O)O[C@H]1C(C)=C[C@]23C(=O)[C@@H](C=C(COC(C)=O)[C@@H](O)[C@]12O)[C@H]1[C@@H](C[C@H]3C)C1(C)C [Compound 4, 20-O-acetylingenol-3-O-(2′E,4′Z) decadienate] |  | significant effects on the IFN-γ production | 
CCCCCCCCCCCC(=O)O[C@@]12C[C@@H](C)[C@]34C=C(C)[C@H](O)[C@@]3(O)[C@H](OC(=O)C(C)C(C)C)C(C)=C[C@H](C4=O)C1C2(C)C (stereo partly drawn) [Compound 1, 5-O-(2,3-dimethylbutanoyl)-13-O-dodecanoyl-20-O-deoxyingenol] |  |  | activity for inducing IFN-γ production (1.25 μM): had activity for inducing IFN-γ production
C[C@H](C/C=C/C(C)(C)O)[C@@H]1CC[C@]2(C)C3=C(CC[C@@]12C)[C@@]1(C)CC[C@H](O)C(C)(C)C1CC3 (stereo partly drawn) [Compound 8, (20R,23E)-eupha-8,23-diene-3b,25-diol] | had activity for inducing IFN-γ production |  | 
